Experimental data taken from US12667546B2, “Methods for manipulating cell state transitions in cancer” (AGENCY FOR SCIENCE, TECHNOLOGY AND RESEARCH, priority 2018, dated 2026).

Legend:
NAMEC8 [1] = assay: Expression of EMT and lineage markers (qRT-PCR, immunoblot, immunofluorescence) in NAMEC8; assay type: cell-based, human; conditions: transcript and protein
Experimental: Cells were rinsed twice in ice-cold PBS. Total RNA was extracted using Trizol (Invitrogen) and column-purified with RNeasy kits (Qiagen). cDNA synthesis was performed with 500 ng of total RNA at 37° C. for 2 h using the SuperScript III First-Strand Synthesis System (Thermo Fisher Scientific), and subsequently diluted 5-fold. mRNA levels were measured with gene-specific primers listed below using the ABI Prism 7900HT Sequence Detection System 2.2 (Applied Biosystems). Results were normalized to GAPDH and analyzed using SDS 2.2 software.
Cells were harvested and scraped from culture dishes in ice-cold PBS. They were then centrifuged at 12000 rpm for 5 min at 4° C. The pellets were then snap frozen in liquid nitrogen or lysed in ice-cold RIPA lysis buffer (Thermo Scientific) and left on ice for 30 min. Subsequently, the lysates were centrifuged at 12000 rpm for 10 min at 4° C. The supernatants were then aspirated and placed in fresh tubes. Protein concentrations were determined using Coomaisse Blue. 50-80 μg total protein was mixed with NuPAGE™ LDS sample buffer and heated at 70° C. for 10 min. Samples were loaded into NuPAGE™ 4-12% Bis-Tris gels (precast polyacrylamide gel; Invitrogen™). Gel electrophoresis was done at 200V for 1.5 h and then blotted onto nitrocellulose membranes (Trans-Blot Turbo™ transfer pack; Bio-Rad). The membranes were blocked with 5% skimmed milk in Tris-buffered saline (TBS; 1st BASE) with 0.1% Tween-20 (Santa Cruz), and then incubated with primary antibodies overnight at 4° C. Thereafter, the membranes were incubated with a horseradish peroxidase (HRP)-conjugated secondary antibody at room temperature for one hour. Finally, the immunoreactive proteins were visualized by using an enhanced chemiluminescent (ECL) reagent (Thermo Scientific, 34075) with the Chemidoc™ Imager (Bio-Rad, 17001401).
Cell cultures were fixed in 4% paraformaldehyde and permeabilized with 0.25% Triton X-100, followed by blocking with 1% bovine serum albumin in PBST. Cells were incubated in specific primary antibodies, followed by the appropriate secondary antibodies conjugated with Alexa Fluor-488 or -594 (Molecular Probes). Cell nuclei were then stained with DAPI and then viewed and imaged with an Axio Observer D1 epifluorescence microscope with a built-in AxioCamMR3 camera (Zeiss), using the optimal filters and 100-200× magnifications.

NAMEC8 [2] = assay: Mammosphere assay, NAMEC8; assay type: cell-based, human; conditions: NAMEC8, pre-treated cells
Experimental: For mammosphere culture, cells were seeded onto 96-well ultralow-adherence plates at 700 cells/well in Mammocult medium (Stem Cell Technologies) supplemented with 4 μg/ml heparin, 0.5 μg/ml hydrocortisone and 1% methylcellulose. Spheres (>100 μm) were counted at 7-10 days later.

[3] = test system: SERPINE1prom-Luc reporter in NAMEC8 cells; assay: Dual-Glo luciferase assay of SERPINE1prom-Luc reporter (FF/Ren); assay type: cell-based, human; conditions: for activity at 10 µM: Homo sapiens, 72 h, read-out: Avr FF/Renilla from DMSO; for activity at 10 µM / Avr FF/Renilla from DMSO: primary screen, relative to DMSO; for dose-dependent change of SERPINE1 promoter activity: dose response (metabolic hits 10 nM to 2 μM; epigenetic hits six concentrations)
Text: pGreenFire1-mCMV was cut using ClaI and SpeI and gel purified. Promoter sequences of genes Zeb1, Serpine1, CDH1, CD24, CD44, CD166 were amplified from human genomic DNA with pre-designed primers containing ClaI and SpeI restriction cut sites using AccuPrime Taq DNA Polymerase (Thermo Fisher Scientific). PCR products were then digested with restriction enzymes and gel-purified. Vector was ligated with PCR insert using Quick Ligase (Fermentas) and transformed into Stb12 competent cells. Colonies were picked and inoculated into TB media with ampicillin. Plasmids were then isolated using a plasmid miniprep kit (Qiagen) and sent for sequencing (1 stBASE Laboratories). After verifying the plasmid sequence, transfection into HEK293 cells was carried out to generate lentivirus. Transfection was carried out using FuGENE 6 (Promega). Viral supernatant was harvested at 24 h and 48 h. NAMEC8 cells were then infected twice with virus using polybrene ([…]) and checked for good transduction efficiency using Dual-Glo Luciferase System (Promega).
Stock plates of compound libraries were kindly prepared by GIS CHiP facility at 1 mM concentration in DMSO. NAMEC8-SERPINE1prom-Luc cells were seeded into 384 well plates at a density of 700 cells/well in a total volume of 50 μl, using an automated dispensing system (BioTek). 0.5 μl of compounds were then added to the wells the following day using a robotic pin transfer with a Bravo workstation (Agilent Technologies). Cells were then grown for 3 days and promoter-luciferase activity was measured using the Dual-Glo Luciferase System (Promega).
Assay was carried out according to manufacturer's instructions. To measure luciferase activity in 384 well plates, media was first removed from the plate. Firefly luciferase activity was determined by adding 30 μl Dual-Glo Luciferase substrate (Promega) to the wells and incubated for 10 min before measuring luminescence using a TECAN M1000 Pro plate reader. 15 μl Dual-Glo Stop & Glo substrate was then added to the wells, incubated for 10 min and measuring luminescence on the plate reader to determine Renilla luciferase activity. Promoter luciferase activity is then calculated by taking Firefly luciferase over Renilla luciferase.

[4] = test system: NAMEC8-SERPINE1prom-Luc cells; assay: Renilla-luciferase (constitutive CMV promoter) readout for cell numbers; assay type: cell-based, human; conditions: primary screen, Renilla as readout for cell numbers, relative to DMSO; for viability at 10 µM: Homo sapiens, 72 h, read-out: % Avr Renilla from DMSO
MCF7-Ras = assay: Tumor growth of ex vivo pre-treated MCF7-Ras injected subcutaneously; assay type: in vivo, NSG mice; conditions: ex vivo treatment before injection
Experimental: (§1) All animal experiments were approved by the Agency for Science Technology and Research Singapore-Biological Resource Centre IACUC (Protocol number 140940). For pre-treated SUM159 and MCF7-Ras cells, 1×10^6 cells were suspended in 100 μl media containing 50% matrigel and injected subcutaneously into both flanks of female NSG mice. The NSG mice were checked for tumor by palpation once a week and tumors were harvested when they reached ˜15 mm in diameter. For treatment in NSG mice, 1×10^5 NAMEC8-Ras cells were suspended in 100 μl media containing 50% matrigel and injected subcutaneously into both flanks of NSG mice. The NSG mice were checked for tumor formation by palpation and when tumors were about 3 mm, mice were randomized into two groups: vehicle (5% DMSO in corn oil) and treatment (Bexarotene, 100 mg/kg/day oral dosing). Tumor size was measured every week using Vernier calipers and mice were sacrificed when tumors reached ˜15 mm or after ˜4 weeks of treatment. For patient-derived cells, 2×10^6 cells were injected subcutaneously per site in NSG mice.

NAMEC8 [5] = assay: Cell morphology of treated NAMEC8; assay type: cell-based, human; conditions: bexarotene, TTNPB, SGC-CBP30, UNC0642, A-485 1 μM, LLY-283, GSK591 20 nM, C-IN-1 500 nM
Experimental: Human mammary epithelial cell lines (HMLE) were generated as described and immortalized using retroviral vectors to express the catalytic subunit of the human telomerase enzyme, hTERT and the SV-40 Large T antigen. NAMEC8 was generated as described. Briefly, HMLE cells were grown to 50% confluency, followed by differential trypsinization for 1 minute with 0.05% trypsin. Detached cells were carefully collected and re-plated at approximately 200 cells per well of a 24-well plate. Upon expansion, wells were screened for populations that were morphologically mesenchymal and can be stably propagated. Clonal and non-clonal NAMEC cell lines were generated. NAMEC8 is a non-clonal line derived from at least 200 mesenchymal cells. HMLE cells and NAMECs were maintained in MEGM (Lonza).

SUM159 PACR cells = assay: Cell viability IC50 in SUM159 PACR cells; conditions: SUM159 PACR vs SUM159 PT
SUM159 [6] = assay: Cell morphology of treated SUM159; assay type: cell-based, human; conditions: bexarotene, TTNPB 1 μM
Experimental: HMLE-Twist-ER cells were generated as described. For EMT-induction, 100 nM of 4-hydroxytamoxifen in ethanol was added to the culture medium every 48 h to induce Twist expression. Control cells were treated with ethanol. MCF7-Slug+Sox9 cells were generated as previously described. HMLE-Zeb1 cells were generated by infection with FUW-Zeb1 and rTTA. Doxycycline was added to the culture medium every 48 h to induce Zeb1 expression. To generate tumorigenic cells from NAMEC8, cells were infected with pWZL-Blast-Ras. MCF7, MCF7-Ras, SUM159 were maintained as previously described. All cell cultures were maintained at 37° C. with 5% CO2.

[7] = test system: Estrogen response element (ERE)-luciferase reporter in NAMEC8; assay: ERE-luciferase activity assay; assay type: cell-based, human
Experimental: ERE luciferase construct was kindly provided by Alan Prem Kumar, CSI, Singapore. To measure the ERE-luciferase activity, cells were seeded 24 h before transfection. ERE-luciferase (1 μg) and NSV-Renilla (0.1 μg) were packaged using Lipofectamine 2000 and transfected into NAMEC8. 24 h post-transfection, cells were reseeded into 96 well plates for drug treatment. Firefly and Renilla luciferase activities were measured with the Dual-Glo Luciferase System (Promega) 24 h post-treatment.

SUM159 [8] = assay: Tumor growth of ex vivo pre-treated SUM159 injected subcutaneously; assay type: in vivo, NSG mice; conditions: short-term (14 days) ex vivo treatment before transplantation
Experimental: as §1

[9] = NAMEC8-SERPINE1prom-Luc cells grown 3 days with compound

SMILES: O=C(NC[C@H](O)CN1CCc2ccccc2C1)c1ccnc(NC2CCC2)c1 [GSK591]
- expression of EMT and basal/luminal markers (NAMEC8 [1]): no apparent change was observed
- mammosphere formation (NAMEC8 [2]): significantly reduce the size and number of spheres formed

SMILES: CC1=C(/C=C/C(C)=C/C=C/C(C)=C/C(=O)O)C(C)(C)CCC1 [Tretinoin (Aberela), Tretinoin]
- activity at 10 µM [3, 9]: 50%
- viability at 10 µM [4]: 87%
- tumor cell growth (MCF7-Ras): no impact on the tumor cell growth was observed

SMILES: CN(C)c1ccc(C2Nc3ccc4ccccc4c3C3=C2C(=O)CC(C)(C)C3)cc1Br (centres unmarked) [Glutaminase C-IN-1]
- dose-dependent change of SERPINE1 promoter activity [3]: dose dependent decrease in SERPINE1 promoter activity
- dose-dependent change of SERPINE1 promoter activity ([3]; listed as C-IN-1): dose-response effect of decreasing SERPINE1 promoter activity
- cell morphology (NAMEC8 [5]): morphological change from a scattered distribution typically observed in mesenchymal cells to tight clusters of epithelial islands
- expression of EMT and basal/luminal markers (NAMEC8 [1]): mesenchymal proteins Zeb1, fibronectin, Slug and Snail were decreased, epithelial E-Cadherin was increased

SMILES: Nc1ncnc2c1ccn2[C@@H]1O[C@H]([C@H](O)c2ccccc2)[C@@H](O)[C@H]1O [LLY-283]
- expression of EMT and basal/luminal markers (NAMEC8 [1]): no apparent change was observed
- mammosphere formation (NAMEC8 [2]): significantly reduce the size and number of spheres formed

SMILES: COc1cc2c(NC3CCN(C(C)C)CC3)nc(N3CCC(F)(F)CC3)nc2cc1OCCCN1CCCC1 [UNC0642]
- expression of EMT and basal/luminal markers (NAMEC8 [1]): no apparent change was observed

SMILES: CC(=O)O[C@H]1C(=O)[C@@]2(C)[C@H]([C@H](OC(=O)c3ccccc3)[C@]3(O)C[C@H](OC(=O)[C@H](O)[C@@H](NC(=O)c4ccccc4)c4ccccc4)C(C)=C1C3(C)C)[C@]1(OC(C)=O)CO[C@@H]1C[C@@H]2O [paclitaxel]
- increase in paclitaxel-resistance, PACR vs parental (PT) cells (SUM159 PACR cells): > 20 fold

SMILES: C[N+]1(C)[C@@H]2CC[C@H]1C[C@@H](OC(=O)C(CO)c1ccccc1)C2 (some centres unmarked) [Atropine methyl nitrate]
- activity at 10 µM [3, 9]: 68%
- viability at 10 µM [4]: 103%

SMILES: CCCCC[C@H](O)/C=C/[C@H]1[C@H](O)CC(=O)[C@@H]1CC(=O)CCCCC(=O)O [6-keto Prostaglandin E1]
- Avr FF/Renilla from DMSO [3, 9]: 0.55
- % Avr Renilla from DMSO [4]: 79.67%

SMILES: CCCCC[C@H](O)/C=C/[C@H]1C(=O)C[C@H](O)[C@@H]1C/C=C\CCCC(=O)NCCO [Prostaglandin D2 Ethanolamide]
- Avr FF/Renilla from DMSO [3, 9]: 0.55
- % Avr Renilla from DMSO [4]: 65.62%

SMILES: C/C(=C\c1ccc(C(=O)O)cc1)c1ccc2c(c1)C(C)(C)CCC2(C)C [TTNPB]
- Avr FF/Renilla from DMSO [3, 9]: 0.19
- % Avr Renilla from DMSO [4]: 58.46%
- cell morphology (NAMEC8 [5]): dramatic change in morphology from scattered, spindle and fibroblastic-like cells to an epithelial-like morphology
- cell morphology (SUM159 [6]): dramatic change in morphology from scattered, spindle and fibroblastic-like cells to an epithelial-like morphology
- ERE-luciferase reporter activity [7]: increased
- tumorigenic potential (SUM159 [8]): severely crippled their tumorigenic potential for up till seven weeks post-transplantation

SMILES: N#C/C(=C\c1ccc(O)c(O)c1)C(=O)NCc1ccccc1 [AG-490]
- Avr FF/Renilla from DMSO [3, 9]: 0.47
- % Avr Renilla from DMSO [4]: 64.03%

SMILES: CC(=O)Nc1nc(C)c(-c2ccc(Cl)c(S(=O)(=O)NCCO)c2)s1 [PIK-93]
- Avr FF/Renilla from DMSO ([3]; […]): 0.72
- % Avr Renilla from DMSO [4]: 75.51%
